From patent publication US20100304971A1, “HERBICIDAL COMBINATION” (Bayer CropScience AG, priority 2008, published 2010)

Tests used:
Veronica persica = test: Post-emergence action against weeds, greenhouse, visual scoring; assay type: in vivo; conditions: 11 days after application
Description: (§1) Seeds or rhizome pieces of monocotyledonous and dicotyledonous weeds were placed in sandy loam soil in plastic pots, covered with soil and cultivated in a greenhouse under good growth conditions. Three weeks after sowing, the test plants were treated at the 2- to 4-leaf stage. The compounds according to the invention, formulated as wettable powders or as emulsion concentrates, were sprayed onto the green parts of the plants in various dosages at a water application rate of 100 to 800 I/ha (converted). After the test plants had been left to stand in the greenhouse for 10 to 28 days under optimum growth conditions, the effect of the preparations was scored visually in comparison to untreated controls.
(§2) 0%=no control 100%=complete control

Polygonum convolvulus = test: as above; assay type: in vivo; conditions: 11 days after application
Description: as §1, §2

sodium salt of 2-iodo-N-[(4-methoxy-6-methyl-1,3,5-triazin-2-yl)carbamoyl]benzenesulfonamide [Compound A-2]
Veronica persica Control in % (Veronica persica; Table 2, 2.5 g of ai/ha, 0%=no control, 100%=complete control): 5%
Polygonum convolvulus Control in % (Polygonum convolvulus; Table 1, 2.5 g of ai/ha, 0%=no control, 100%=complete control): 10%
Polygonum convolvulus Control in % (Polygonum convolvulus; Table 3, 2.5 g of active ingredient/ha): 20%
Polygonum convolvulus Control in % (Polygonum convolvulus; Table 4, 2.5 g of active ingredient/ha): 0%
Polygonum convolvulus Control in % (Polygonum convolvulus; Table 5, 2.5 g of ai/ha): 0%
Polygonum convolvulus Control in % (Polygonum convolvulus; Table 6, 2.5 g of ai/ha): 0%

CCO/N=C(\CC)C1=C(O)CC(c2c(C)cc(C)cc2C)CC1=O (stereo not drawn) [Compound B2-8, tralkoxydim]
Polygonum convolvulus Control in % (Polygonum convolvulus; Table 5, 150 g of ai/ha): 20%

COCCOCc1nc(C(F)(F)F)ccc1C(=O)C1C(=O)C2CCC(C2)C1=O (stereo not drawn) [Compound B3-5, 3-[[2-[(2-methoxyethoxy)methyl]-6-(trifluoromethyl)pyridin-3-yl]carbonyl]bicyclo[3.2.1]octane-2,4-dione]
Veronica persica Control in % (Veronica persica; Table 2, 25 g of ai/ha): 20%

CS(=O)(=O)c1ccc(C(=O)C2C(=O)CCCC2=O)c(Cl)c1COCC1CCCO1 (stereo not drawn) [Compound B3-3, tefuryltrione]
Polygonum convolvulus Control in % (Polygonum convolvulus; Table 3, 100 g of active ingredient/ha): 15%

CS(=O)(=O)c1ccc(C(=O)C2C(=O)CCCC2=O)c(Cl)c1COCC(F)(F)F [Compound B3-4, tembotrione]
Polygonum convolvulus Control in % (Polygonum convolvulus; Table 1, 50 g of ai/ha): 45%

CCSC(C)CC1CC(=O)C(/C(CC)=N/OC/C=C/Cl)=C(O)C1 (stereo not drawn) [Compound B2-3, clethodim]
Polygonum convolvulus Control in % (Polygonum convolvulus; Table 4, 50 g of active ingredient/ha): 20%

CCOc1cc(Cl)cc(CC)c1C1=C(O)C2(CCC(OC)CC2)NC1=O (stereo not drawn) [Compound B4-1, cis-3-(4-chloro-2-ethoxy-6-ethylphenyl)-4-hydroxy-8-methoxy-1-azaspiro[4.5]dec-3-en-2-one]
Polygonum convolvulus Control in % (Polygonum convolvulus; Table 6, 7.5 g of ai/ha): 20%
